Assay results taken from ChEMBL document CHEMBL3137667, “[Drug-induced liver injury; fourteenth updated edition of the bibliographic database of liver injuries and related drugs]” (Gastroenterol Clin Biol, 2004).

Assays:
[1] = Presence of at least one case with successful reintroduction. [column 'REINT' in source]; conditions: human
[2] = Comments (NB not yet translated). [column 'COMMENTAIRES' in source]; conditions: human
[3] = Times to onset, minimal and maximal, observed in the indexed observations. [column 'DELAI' in source]; conditions: human
[4] = Proposed mechanism(s) of liver damage. [column 'MEC' in source]; conditions: human
[5] = human
[6] = human; remark: listed apart in the source
[7] = human, serum, 4383 h
[8] = human; remark: listed apart in the source
[9] = human; remark: listed apart in the source
[10] = human; remark: listed apart in the source
[11] = human; remark: listed apart in the source
[12] = human; remark: listed apart in the source
[13] = human; remark: listed apart in the source
[14] = human; remark: listed apart in the source
[15] = Highest frequency of moderate liver toxicity observed during clinical trials, expressed as a percentage. [column '% BIOL' in source]; conditions: human
[16] = Highest frequency of acute liver toxicity observed during clinical trials, expressed as a percentage. [column '% AIGUE' in source]; conditions: human
[17] = human, serum
[18] = human, serum; remark: listed apart in the source
[19] = human; remark: listed apart in the source
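For Hepatotoxicity (association with vascular disease) in this document: count of indexed literature references reporting vascular liver injury in humans, e.g. peliosis hepatitis, hepatic veno-occlusive disease or Budd-Chiari syndrome.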
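For Hepatotoxicity (benign tumour) in this document: value is a count of indexed literature references citing a benign tumour confirmed by histopathology.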
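For Hepatotoxicity (choleostasis) in this document: human cholestatic liver injury, shown by histopathology or by peak ALT or AST elevation over alkaline phosphatase ratio below 2, value counts indexed literature reports.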
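For Hepatotoxicity (chronic liver disease) in this document: chronic liver injury confirmed by histopathology or persistently raised serum aminotransferase activity beyond 6 months, value given as the count of indexed literature references.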
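For Hepatotoxicity (cirrhosis) in this document: value is a count of indexed literature references reporting cirrhosis confirmed by histopathology.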
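For Hepatotoxicity (cytolytic) in this document: human cytolytic liver injury, shown by histopathology or by a ratio above 5 of peak ALT or AST elevation to alkaline phosphatase elevation, value counts indexed references.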
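For Hepatotoxicity (granulomatous hepatitis) in this document: value is a count of indexed literature references reporting granulomatous liver disease confirmed by histopathology.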
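For Hepatotoxicity (malignant tumour) in this document: malignant tumour confirmed by histopathology, value gives the count of indexed literature references reporting it.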
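For Hepatotoxicity (severe hepatitis) in this document: human clinical data: severe hepatitis, meaning potentially life-threatening liver failure or clinically observed cases, the value counts how many indexed literature references report it.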
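For Hepatotoxicity (steatosis) in this document: steatosis confirmed by histopathology, value is the count of indexed references.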

| SMILES | Hepatotoxicity (successful reintroduction) [1] | Hepatotoxicity (comment) [2] | Hepatotoxicity (time to onset) [3] | Hepatotoxicity (mechanism) [4] | Hepatotoxicity (cytolytic) [5] | Hepatotoxicity (choleostasis) [6] | Hepatotoxicity (chronic liver disease) [7] | Hepatotoxicity (cirrhosis) [8] | Hepatotoxicity (granulomatous hepatitis) [9] | Hepatotoxicity (association with vascular disease) [10] | Hepatotoxicity (steatosis) [11] | Hepatotoxicity (malignant tumour) [12] | Hepatotoxicity (benign tumour) [13] | Hepatotoxicity (animal toxicity known) [14] | Hepatotoxicity (moderate) [15] [%] | Hepatotoxicity (acute) [16] [%] | Hepatotoxicity (moderate) [17] | Hepatotoxicity (acute) [18] | Hepatotoxicity (severe hepatitis) [19] | further results |
| --- | --- | --- | --- | --- | --- | --- | --- | --- | --- | --- | --- | --- | --- | --- | --- | --- | --- | --- | --- | --- |
| CC(=O)Nc1ccc(O)cc1 [ACETAMINOPHEN] | yes | I/ALCOOL/PHENYTOINE/PHENOBARBITAL/IFN/ZIDOVUDINE #CBP | 1 day - 12 years | Allergic, Toxic Metabolite | 98 | 5 | 7 | 5 | 1 | 0 | 1 | 0 | 0 | yes |  |  |  |  |  |  |
| Cc1nnc2n1-c1ccc(Cl)cc1C(c1ccccc1)=NC2 [ALPRAZOLAM] | yes |  | 3 days - 3 weeks | Dose-dependant | 2 | 1 | 0 | 0 | 0 | 1 | 0 | 0 | 0 | A | 8 | 0.4 | 3 | 4 | 1 |  |
| C[C@@H]1[C@H](O)[C@@H](C)/C=C/C=C/C=C/C=C/C=C/C=C/C=C/[C@H](O[C@@H]2O[C@H](C)[C@@H](O)[C@H](N)[C@@H]2O)C[C@@H]2O[C@](O)(C[C@@H](O)C[C@@H](O)[C@H](O)CC[C@@H](O)C[C@@H](O)CC(=O)O[C@H]1C)C[C@H](O)[C@H]2C(=O)O [AMPHOTERICIN B] | yes |  | 2 days - 4 months | Dose-dependant | 6 | 7 | 0 | 0 | 0 | 0 | 2 | 0 | 0 | yes | 91.7 | 50 | 28 | 15 | 4 |  |
| C[C@H](CCC(=O)O)[C@H]1CC[C@H]2[C@@H]3[C@H](O)C[C@@H]4C[C@H](O)CC[C@]4(C)[C@H]3CC[C@]12C [CHENODIOL] | yes |  | 3 weeks - 3 months | Dose-dependant | 3 | 2 | 1 | 0 | 0 | 0 | 0 | 0 | 0 | yes | 37 | 3 | 22 | 5 | 0 |  |
| O=c1ccc2ccccc2o1 [COUMARIN] | yes |  | 5 days - 6 months | Dose-dependant | 11 | 1 | 0 | 0 | 0 | 0 | 0 | 0 | 0 | yes | 8.7 | 4.3 | 8 | 16 | 3 |  |
| O=C1CN(/N=C/c2ccc(-c3ccc([N+](=O)[O-])cc3)o2)C(O)=N1 [DANTROLENE] | yes | CHOLANGITE | 7 days - 1 year |  | 10 | 6 | 1 | 0 | 0 | 0 | 0 | 0 | 0 | yes | 1.8 | 0.6 | 11 | 11 | 7 |  |
| NC(N)=Nc1nc(CSCCN/C=N/S(=O)(=O)c2ccc(Br)cc2)cs1 [EBROTIDINE] | yes | AC_ANTI-ML | 2 weeks - 6 months |  | 2 | 0 | 1 | 1 | 0 | 0 | 0 | 0 | 0 | yes | 0 | 0 | 0 | 2 | 1 |  |
| COc1ccc2c(c1)c(CC(=O)O)c(C)n2C(=O)c1ccc(Cl)cc1 [INDOMETHACIN] | yes |  | 3 days - 10 years | Allergic, Reactive metabolite | 8 | 10 | 0 | 0 | 0 | 0 | 0 | 0 | 0 | yes | 25 | 1 | 7 | 17 | 5 |  |
| Cc1ncc([N+](=O)[O-])n1CCO [METRONIDAZOLE] | yes |  | 1 day - 2.3 months | Dose-dependant | 8 | 2 | 0 | 0 | 0 | 0 | 0 | 0 | 0 | yes |  |  | 4 | 10 |  | Hepatotoxicity (moderate) ([15]; Liver): 25%; Hepatotoxicity (acute) ([16]; Liver): 0%; Hepatotoxicity (severe hepatitis) ([19]; Liver): 1 |
| N=C(N)c1ccc(OCCCCCOc2ccc(C(=N)N)cc2)cc1 [PENTAMIDINE] | yes |  | 1 week - 3 months |  | 4 | 0 | 0 | 0 | 0 | 0 | 1 | 0 | 0 | yes | 43.5 | 0 | 17 | 4 | 2 |  |
| CN(N=O)C(=O)N[C@@H](C=O)[C@@H](O)[C@H](O)[C@H](O)CO [STREPTOZOCIN] | yes | CHOLANGITE/IAH | 4 days - 6 weeks |  | 1 | 0 | 0 | 0 | 0 | 0 | 0 | 0 | 0 | yes | 67 | 35.3 | 9 | 3 | 2 |  |
| Nc1c2c(nc3ccccc13)CCCC2 [TACRINE] | yes |  | 1 week - 1.7 years |  |  |  | 0 | 0 |  | 0 | 1 | 0 | 0 | yes |  |  | 38 | 22 |  | Hepatotoxicity (moderate) ([15]; Liver): 54%; Hepatotoxicity (acute) ([16]; Liver): 13.4%; Hepatotoxicity (mechanism) ([4]; Liver): Dose-dependant; Hepatotoxicity (cytolytic) ([5]; Liver): 19; Hepatotoxicity (choleostasis) ([6]; Liver): 1; Hepatotoxicity (severe hepatitis) ([19]; Liver): 2; Hepatotoxicity (granulomatous hepatitis) ([9]; Liver): 4 |
